The values that follow are results of earlier work, collected in patent EP0557244B1, “Dosage forms having prolonged active-ingredient release” (Siegfried Pharma AG, priority 1992, dated 1993).

[1] abbreviates: 20 mg of crystalline nifedipine, Pabst et al.
Setting [2] is: 20 mg of dissolved nifedipine in capsules, Pabst et al.

The structures appear in SMILES notation. Like-named read-outs stand apart in the source and are kept apart here.

On to `COC(=O)C1=C(C)NC(C)=C(C(=O)OC)C1c1ccccc1[N+](=O)[O-]` [nifedipine], for which the plasma level peaks result by setting is: under setting [1], “about 40 ng/ml”; under setting [2], “about 200 ng/ml”; (tablet containing 40 mg of nifedipine (EP 220 760), initially) “more than 60 ng/ml”. Moreover, the “time of plasma level peaks” value under setting [1] is listed as “about 1.5 hours” and the “time of plasma level peaks” value under setting [2] is “about 30 minutes”.
